In the test the target is T1, PD-1/PD-L1 interaction (Homo sapiens, UniProt Q9NZQ7).
T1 construct: Tag1 or Tag2 (undisclosed kit tag); purchased Cisbio
The test can be described thus: Cisbio PD-1/PD-L1 Homogeneous Time-Resolved Fluorescence (HTRF) binding assay. The note with it: read-out: Reported IC50. An excerpt: The ability of compounds of the disclosure to inhibit the PD-1/PD-L1 interaction was investigated using a Cisbio PD-1/PD-L1 Homogeneous Time-Resolved Fluorescence (HTRF) binding assay (https://ca.cisbio.net/human-pd1-pd-l1-biochemical-binding-assay-44666).
With the assay, the interaction between PD-L1 and PD-1 is detected by using anti-Tag1 labeled with Europium (HTRF donor) and anti-Tag2 labeled with XL665 (HTRF acceptor). When the donor and acceptor antibodies are brought into close proximity due to PD-L1 and PD-1 binding, excitation of the donor antibody triggers fluorescence resonance energy transfer (FRET) towards the acceptor antibody, which in turn emits specifically at 665 nm. This specific signal is directly proportional to the extent of PD-1/PD-L1 interaction. Thus, a compound blocking the PD-1/PD-L1 interaction causes a reduction in the HTRF signal.
The assay was carried out in accordance with the product insert.
In general terms: Time-resolved FRET reads energy transfer from a long-lived donor to a nearby acceptor.

Setting [1] is: Table 10, * n = 7, median, P1 and P2 are different isomers.
Setting [2] is: Table 10, same result in μM, P1 and P2 are different isomers.

Like-named read-outs stand apart in the source and are kept apart here.

T1 sequence (Q9NZQ7 19-238 limits assumed): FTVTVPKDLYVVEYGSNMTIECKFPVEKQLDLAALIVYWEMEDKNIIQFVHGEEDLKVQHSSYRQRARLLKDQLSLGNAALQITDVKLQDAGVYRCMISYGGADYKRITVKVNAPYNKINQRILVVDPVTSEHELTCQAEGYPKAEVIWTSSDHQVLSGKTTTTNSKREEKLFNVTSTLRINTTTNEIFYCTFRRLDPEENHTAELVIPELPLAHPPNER

Usually IC50 stands for the midpoint of a concentration-inhibition curve. Turning to `COc1ccc(C(=O)N2CCN(Cc3csc(NC[C@@H]4CCCN4Cc4ccc(Br)cc4)n3)CC2)cc1` [Compound A401], the IC50 is 1.2 µM (Table 9) and 1.2 µM (Table 9, same result in μM). In the case of `O=C(c1ccccc1)N1CCN(Cc2nsc(NC[C@@H]3CCCN3Cc3ccc(Br)cc3)n2)CC1` [Compound B412], the IC50 is, setting by setting: under setting [1], 4.4 µM; under setting [2], 4.4 µM.

Regarding `COc1cc(C(=O)N2CCN(Cc3csc(NC[C@@H]4CCCN4Cc4ccc(S(C)(=O)=O)cc4)n3)CC2)cc(OC)c1OC` [Compound A308], the IC50 was 0.69 µM (Table 9) and 0.69 µM (Table 9, same result in μM). With `COc1ccc(CN2CCC[C@H]2CNc2nc(CN3CCN(C(=O)c4cnc(C)cn4)CC3)cs2)cc1OC` [Compound 2678-53], the IC50 (Table 8, Run: Pure) worked out at 53 µM. As to `Cc1ccc(C(=O)N2CCN(Cc3csc(NC[C@@H]4CCCN4Cc4ccc(Br)cc4)n3)CC2)cc1` [Compound B408], the IC50 was > 50 µM (Table 9) and > 50 µM (Table 9, same result in μM). `Cn1ncc2cc(C(=O)N3CCN(Cc4csc(NC[C@@H]5CCCN5Cc5ccc(Br)cc5)n4)CC3)ccc21` [Compound A407]: the IC50 was 0.49 µM (Table 9) and 0.49 µM (Table 9, same result in μM). On to `COc1cc(C(=O)N2CCN(Cc3csc(NCC4CC(OCc5ccccc5)CN4Cc4ccc(Br)cc4)n3)CC2)cc(OC)c1OC` (stereo not shown) [Compound 2678-80], for which, where the note is “Table 8, Run: Pure”, the IC50 was found to be 0.5 µM. On to `Cn1cc(C(=O)N2CCN(Cc3nsc(NC[C@@H]4CCCN4Cc4ccc(Br)cc4)n3)CC2)ccc1=O` [Compound B415], for which the IC50 by setting is: under setting [1], 0.216 µM; under setting [2], 0.22 µM. For the compound `COc1cc(C(=O)N2CCN(Cc3csc(NC[C@@H]4C[C@@H](O)CN4Cc4ccc(Br)cc4)n3)CC2)cc(OC)c1OC` [Compound A704], the IC50 by setting is: (Table 9) 0.089 µM; (Table 9, same result in μM) 0.089 µM. As to `COc1cc(C(=O)N2C[C@@H](C)N(Cc3csc(NC[C@@H]4CCCN4Cc4ccc(Br)cc4)n3)C[C@H]2C)cc(OC)c1OC` [Compound A608], the IC50 is, setting by setting: (Table 9) 1.6 µM; (Table 9, same result in μM) 1.6 µM. Regarding `COc1cc(C(=O)N2CCN([C@H](C)c3nsc(NC[C@@H]4CCCN4Cc4ccc(Br)cc4)n3)CC2)cc(OC)c1OC` [Compound B805], the IC50 under setting [1] turned out to be 0.014 µM and the IC50 under setting [2] was 0.014 µM.

Take `CCCCCC(=O)N1CCN(Cc2csc(NC[C@@H]3CCCN3CCCc3nc4ccccc4[nH]3)n2)CC1` [Compound 2678-32]: the half-maximal inhibitory concentration (IC50) (Table 8, Run: Pure (70% Pure)) was 7.9 µM. `COc1cc(C(=O)N2CCN(Cc3csc(NC[C@H]4CCCN4Cc4ccc(Br)cc4)n3)CC2)cc(OC)c1OC` [Compound A706]: the half-maximal inhibitory concentration (IC50) reads like this: (Table 9) 13 µM; (Table 9, same result in μM) 13 µM. With `COc1cc(CN2CCN(Cc3csc(NCC4CCCN4C(C)c4ccc(Br)cc4)n3)CC2)cc(OC)c1OC` (stereo not shown) [Compound A602], the IC50 runs as follows: (Table 9) 0.324 µM; (Table 9, same result in μM) 0.32 µM. The matching figures for `COc1cc(C(=O)N2CCN(Cc3csc(NC[C@@H]4CCCN4Cc4ccc(C(F)(F)F)cc4)n3)CC2)cc(OC)c1OC` [Compound A302]: 0.14 µM and 0.14 µM.

As for `Cc1ccc(C(=O)N2CCN(Cc3nsc(NC[C@@H]4CCCN4Cc4ccc(Br)cc4)n3)CC2)cc1` [Compound B409], the IC50 under setting [1] amounted to 0.65 µM and the IC50 under setting [2] was 0.65 µM. As for `O=C(Cc1ccccc1)N1CCN(Cc2csc(NC[C@@H]3CCCN3Cc3ccc(Br)cc3)n2)CC1` [Compound 2463-262], the concentration for half-maximal inhibition (IC50) (Table 8, Run: Crude) was 3.1 µM. Turning to `COc1cc(C(=O)N2CCN(Cc3nsc(NC[C@@H]4CCCN4Cc4ccc(C(F)(F)F)cc4)n3)CC2)cc(OC)c1OC` [Compound B317], the IC50 under setting [1] is 0.018 µM and the IC50 under setting [2] is 0.018 µM.

Consider `COc1cc(C(=O)N2CCN(Cc3csc(NC[C@@H]4CCCN4Cc4cccc(Br)c4)n3)CC2)cc(OC)c1OC` [Compound A305], for which the IC50 was 36 µM (Table 9) and 36 µM (Table 9, same result in μM).

Turning to `COc1cc(C(=O)N2CCN([C@@H](C)c3nsc(NC[C@@H]4CCCN4Cc4ccc(Br)cc4)n3)CC2)cc(OC)c1OC` [Compound B806], the IC50 is, setting by setting: under setting [1], 0.012 µM; under setting [2], 0.012 µM.

For `COc1cc(C(=O)N2CCN(Cc3csc(NC[C@@H]4CCCN4Cc4ccc(C5CC5)cc4)n3)CC2)cc(OC)c1OC` [Compound A303], the IC50 (Table 9) was found to be 9.1 µM and the IC50 (Table 9, same result in μM) is 9.1 µM. In the case of `COc1ccc(CN2CCC[C@H]2CNc2nc(CN3CCN(C(=O)c4cc(OC)c(OC)c(OC)c4)CC3)cs2)cc1` [Compound A307], the half-maximal inhibitory concentration (IC50) by setting is: (Table 9) 9.2 µM; (Table 9, same result in μM) 9.2 µM.

Consider `COc1ccc(CN2CCC[C@H]2CNc2nc(CN3CCN(C(=O)CCc4nc5ccccc5[nH]4)CC3)cs2)cc1OC` [Compound 2678-5], for which, for the setting “Table 8, Run: Pure”, the IC50 is 9.2 µM. On the same count and under the same terms, as for `Cc1cnc(C(=O)N2CCN(Cc3csc(NC[C@@H]4CCCN4Cc4ccc(F)cc4)n3)CC2)cn1` [Compound 2678-51], the figure is 8.7 µM; as for `O=C(c1ccco1)N1CCN(Cc2csc(NC[C@@H]3CCCN3Cc3ccc(Br)cc3)n2)CC1` [Compound 2678-66], 0.87 µM. As for `COc1cc(C(=O)N2CCN(Cc3cc(NC[C@@H]4CCCN4Cc4ccc(Br)cc4)sn3)CC2)cc(OC)c1OC` [Compound B708], the IC50 is, setting by setting: under setting [1], 0.028 µM; under setting [2], 0.028 µM.

`COc1cc(C(=O)N2CCN(Cc3csc(NC[C@@H]4CCCN4Cc4ccncn4)n3)CC2)cc(OC)c1OC` [Compound A312]: the IC50 was > 50 µM (Table 9) and > 50 µM (Table 9, same result in μM).

Regarding `COc1cc(C(=O)N2CCN(Cc3csc(NC[C@@H]4CCCN4Cc4cnc(C)s4)n3)CC2)cc(OC)c1OC` [Compound A310], the IC50 worked out at 26 µM (Table 9) and 26 µM (Table 9, same result in μM). For the compound `CC(=O)N1CCN(Cc2csc(NC[C@@H]3CCCN3Cc3ccc(Br)cc3)n2)CC1` [Compound A503], the IC50 (Table 9) was 2.6 µM and the IC50 (Table 9, same result in μM) came to 0.26 µM. The matching figures for `COc1cc(C(=O)N2CCN(Cc3csc(NC[C@@H]4CCCN4Cc4ccc(Cl)cc4)n3)CC2)cc(OC)c1OC` [Compound B313]: 0.205 µM and 0.21 µM. For `COc1cc(CN2CCN(Cc3csc(NCC4CCCN4C(=O)c4ccc(Br)cc4)n3)CC2)cc(OC)c1OC` (stereo not shown) [Compound A605] the same measures were > 50 µM and > 50 µM. With `COc1cc(C(=O)N2CCN(Cc3csc(NC[C@@H]4CCCN4Cc4nnc(C)s4)n3)CC2)cc(OC)c1OC` [Compound A311], the half-inhibitory concentration (IC50) was > 50 µM (Table 9) and > 50 µM (Table 9, same result in μM). As for `COc1cc(C(=O)N2CCN(Cc3nsc(NC[C@@H]4C[C@@H](O)CN4Cc4ccc(Br)cc4)n3)CC2)cc(OC)c1OC` [Compound B802], the IC50 worked out at 0.012 µM under setting [1] and 0.012 µM under setting [2]. For the compound `COc1cc(C(=O)N2CCN(Cc3csc(NC[C@@H]4CCCN4Cc4ccc(C)cc4)n3)CC2)cc(OC)c1OC` [Compound A304], the half-inhibitory concentration (IC50) runs as follows: (Table 9) 3.5 µM; (Table 9, same result in μM) 3.5 µM. Take `COc1cc(CN2CCN(Cc3csc(NCC4CCCN4Cc4ccccc4)n3)CC2)cc(OC)c1OC` (stereo not shown) [Compound A505]: the IC50 by setting is: (Table 9) > 50 µM; (Table 9, same result in μM) > 50 µM.

In the case of `COc1cc(C(=O)N2CCN(Cc3csc(NC[C@@H]4CCCN4Cc4ccc(C(F)F)cc4)n3)CC2)cc(OC)c1OC` [Compound B315], the 50% inhibitory concentration (IC50) is, setting by setting: (Table 9) 0.353 µM; (Table 9, same result in μM) 0.35 µM. On to `O=C(CCc1nc2ccccc2[nH]1)N1CCN(Cc2csc(NCC3CC(OCc4ccccc4)CN3Cc3ccc(Br)cc3)n2)CC1` (stereo not shown) [Compound 2678-78], for which, for the setting “Table 8, Run: Pure”, the concentration for half-maximal inhibition (IC50) was determined as 1.6 µM.

Take `COc1cc(C(=O)N2CCN([C@H](C)c3csc(NC[C@@H]4CCCN4Cc4ccc(Br)cc4)n3)CC2)cc(OC)c1OC` [Compound A603]: the IC50 (Table 9) was found to be 0.11 µM and the IC50 (Table 9, same result in μM) was 0.11 µM. In the case of `O=C(c1ccc(Cl)cc1)N1CCN(Cc2nsc(NC[C@@H]3CCCN3Cc3ccc(Br)cc3)n2)CC1` [Compound B411], the IC50 by setting is: under setting [1], 1.02 µM; under setting [2], 1 µM. With `O=C(c1ccc(=O)[nH]c1)N1CCN(Cc2csc(NC[C@@H]3CCCN3Cc3ccc(Br)cc3)n2)CC1` [Compound A405], the IC50 is, setting by setting: (Table 9) 0.247 µM; (Table 9, same result in μM) 0.25 µM. For `COc1cc(C(=O)C2CCN(Cc3csc(NC[C@@H]4CCCN4Cc4ccc(Br)cc4)n3)CC2)cc(OC)c1OC` [Compound A703] the same measures were 0.109 µM and 0.11 µM. Regarding `COc1cc(C(=O)N2CCN(Cc3nsc(NC[C@@H]4CCCN4Cc4ccc(C(F)F)cc4)n3)CC2)cc(OC)c1OC` [Compound B316], the IC50 reads like this: under setting [1], 0.025 µM; under setting [2], 0.025 µM. As for `O=C(c1ccc(Cl)cc1)N1CCN(Cc2csc(NCC3CCCN3Cc3ccc(Br)cc3)n2)CC1` (stereo not shown) [Compound B410], the IC50 (Table 9) is > 5 µM and the IC50 (Table 9, same result in μM) was > 5 µM. Regarding `CC(Oc1ccccc1)C(=O)N1CCN(Cc2csc(NC[C@@H]3CCCN3Cc3ccc(Br)cc3)n2)CC1` (stereo partly shown) [Compound 2678-58], the IC50 (Table 8, Run: Pure) is 0.8 µM.

For the compound `COc1cc(C(=O)N2CCN(Cc3nsc(NC[C@@H]4CCCCN4Cc4ccc(Br)cc4)n3)CC2)cc(OC)c1OC` [Compound B710], the 50% inhibitory concentration (IC50) is, setting by setting: under setting [1], 0.096 µM; under setting [2], 0.096 µM. For the compound `COc1cc(C(=O)N2CCN(Cc3nsc(NC[C@@H]4CCCN4Cc4ccc(Cl)cc4)n3)CC2)cc(OC)c1OC` [Compound B314], the IC50 stood at 0.018 µM under setting [1] and 0.018 µM under setting [2].

For `COc1cc(C(=O)N2C[C@H](C)N(Cc3csc(NC[C@@H]4CCCN4Cc4ccc(Br)cc4)n3)C[C@@H]2C)cc(OC)c1OC` [Compound A607], the IC50 is, setting by setting: (Table 9) 0.096 µM; (Table 9, same result in μM) 0.096 µM.

Source of the values: US20230219942A1, “COMPOUNDS COMPRISING A THREE RING CORE AS PD-1/PD-L1 BLOCKERS” (RELIVE THERAPEUTICS INC., priority 2020, published 2023).
